Source: patent publication US20250327794A1, “FLUOROMETRIC METHODS FOR DETECTION OF ALLERGIC SENSITIVITY TO ENVIRONMENTAL, FOODSTUFF, AND MEDICAMENT STIMULANTS” (CELL SCIENCE SYSTEMS CORPORATION, priority 2022, published 2025)

Tested on: eosinophils
Test: Eosinophil activation: RH 123 signal in CD193(+)/CD16(-) gated cells
Type: cell-based, human
Excerpt: Activation of eosinophils from human blood samples following exposure to exogenous stimulants was investigated using flow cytometry analysis of RH 123 fluorescence, as well as cell surface markers CD16 and CD193, and side scattering profiles. CD193 (CCR3; Chemokine C—C motif receptor 3) is a surface marker expressed in eosinophils and basophils. FIGS. 23A-23C show density plots of CD193 fluorescence signal on channel 3 (FL3-A) for DHR 123 only (FIG. 23A), DHR 123+PMA stimulant (FIG. 23B), and DHR 123+DM stimulant (FIG. 23C) following exposure to stimulant for 1.5 hours. FIGS. 23D-23F show corresponding gated RH 123 results (MFI=32944, MFI=70320, and MFI=28522, respectively). FIGS. 24A-24C show density plots of CD193 fluorescent signals at channel 3 (FL3-A) for DHR 123 only (FIG. 24A), DHR 123+DM stimulant (FIG. 24B), and DHR 123+RWP stimulant (FIG. 24C) following exposure to stimulant for 2.5 hours. FIGS. 24D-24F show corresponding gated RH 123 results (FIG. 24D, DHR 123 only: MFI=10156; FIG. 24E, DHR 123+DM stimulant: MFI=19911, and […], DHR 123+RWP stimulant: MFI=17210).
Eosinophil population was selected using CD193(+) and CD16(−) expression profiles (shown in FIGS. 23A-23C and […] as encircled). Eosinophil population was reduced in PMA stimulant, DM stimulant and RWP stimulant exposed groups. In addition, DHR 123 signals in gated eosinophils was higher than DHR 123 only control group after 2.5-hour incubation. Thus, it was concluded that eosinophils are activated by dust mite and ragweed pollen stimulants according to this method.

CCCCCCCCCCCCCC(=O)O[C@@H]1[C@@H](C)[C@@]2(O)[C@@H](C=C(CO)C[C@]3(O)C(=O)C(C)=C[C@@H]23)[C@@H]2C(C)(C)[C@]12OC(C)=O [PMA, Phorbol-12-Myristate-13-Acetate]
CD193 signal over incubation time (1-3 hr incubation, DHR 123 and PMA): decreased
gated RH 123 signal MFI, CD193 gated (1.5 hours exposure, DHR 123 only control MFI=32944): 70320
eosinophil population (in words) (CD193(+) and CD16(−) population in stimulant exposed groups): reduced
